Source: ChEMBL document CHEMBL2417368, “Structure-based discovery of novel amide-containing nicotinamide phosphoribosyltransferase (nampt) inhibitors” (J Med Chem, 2013)

Tests used:
[1] = Metabolic stability in human liver microsomes assessed as compound remaining at 1 uM after 30 mins LC-MS analysis; type: ADME, Microsome; details: liver microsomes, read-out: Stability
A2780 = test: cells; details: Homo sapiens, A2780, 72 h
[2] = Metabolic stability in mouse liver microsomes assessed as compound remaining at 1 uM after 30 mins LC-MS analysis; type: ADME, Microsome; details: liver microsomes, read-out: Stability
[3] = biological target: Nicotinamide phosphoribosyltransferase (Homo sapiens, UniProt P43490)
Chain of Nicotinamide phosphoribosyltransferase (P43490 whole entry): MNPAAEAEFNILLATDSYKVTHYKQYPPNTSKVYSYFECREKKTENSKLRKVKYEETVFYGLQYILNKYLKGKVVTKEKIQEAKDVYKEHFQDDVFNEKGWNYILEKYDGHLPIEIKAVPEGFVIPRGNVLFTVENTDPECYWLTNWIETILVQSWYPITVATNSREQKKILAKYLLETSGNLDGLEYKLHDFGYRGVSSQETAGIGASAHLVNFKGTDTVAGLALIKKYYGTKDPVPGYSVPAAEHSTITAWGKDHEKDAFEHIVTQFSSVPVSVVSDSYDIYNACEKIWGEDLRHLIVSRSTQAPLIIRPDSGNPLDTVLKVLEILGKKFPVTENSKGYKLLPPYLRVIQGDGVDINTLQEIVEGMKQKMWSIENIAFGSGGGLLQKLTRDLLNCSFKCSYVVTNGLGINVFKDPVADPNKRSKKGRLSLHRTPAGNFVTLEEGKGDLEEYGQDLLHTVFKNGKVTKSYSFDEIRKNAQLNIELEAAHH

Work on O=C(NCc1ccc(S(=O)(=O)c2cccnc2)cc1)c1cc2cnccc2[nH]1 yielded a remaining at 0.5 h, 1 µM [1] of 75%, an IC50 (A2780) of 0.048 µM and a remaining at 0.5 h, 1 µM [2] of 20%.
Molecule Cc1cccc(S(=O)(=O)c2ccc(CNC(=O)c3cc4cnccc4[nH]3)cc2)c1 has a remaining at 0.5 h, 1 µM [1] of 49%, an IC50 (A2780) of 0.004 µM and an IC50 [3] of 0.008 µM. It also gave a remaining at 0.5 h, 1 µM [2] of 32%.
For O=C(NCc1ccc(S(=O)(=O)c2ccccc2)cc1)c1ccc2nccn2c1, the remaining at 0.5 h, 1 µM [1] was 77%, the IC50 (A2780) was 0.013 µM and the IC50 [3] was 0.018 µM. It also gave a remaining at 0.5 h, 1 µM [2] of 18%.
In the case of O=C(NCc1ccc(S(=O)(=O)c2cccc(C(F)(F)F)c2)cc1)c1cnc2nccn2c1, the remaining at 0.5 h, 1 µM [1] is reported as 41%, the IC50 (A2780) is reported as 0.002 µM and the IC50 [3] is reported as 0.001 µM. It also gave a remaining at 0.5 h, 1 µM [2] of 27%.
For O=C(NCc1ccc(S(=O)(=O)c2ccccc2)cc1)c1cc2ncccc2s1, the remaining at 0.5 h, 1 µM [1] was 81%, the IC50 (A2780) was > 10 µM and the IC50 [3] was 0.4 µM. For the same molecule, the remaining at 0.5 h, 1 µM [2] was 1.6%.
With Cc1ccccc1S(=O)(=O)c1ccc(CNC(=O)c2cc3cnccc3[nH]2)cc1 the remaining at 0.5 h, 1 µM [1] was 48%, the IC50 (A2780) was 0.013 µM and the IC50 [3] was 0.012 µM. The remaining at 0.5 h, 1 µM [2] was 15%.
In the case of O=C(Nc1ccc(S(=O)(=O)N2CCCCC2)cc1)c1cc2cnccc2[nH]1, the IC50 (A2780) is reported as > 10 µM and the IC50 [3] is reported as > 10 µM.
O=C(NCc1ccc(S(=O)(=O)c2ccccc2)cc1)c1cc2ccncc2o1 showed a remaining at 0.5 h, 1 µM [1] of 86% and a remaining at 0.5 h, 1 µM [2] of 30%.
For O=C(NCc1ccc(S(=O)(=O)c2ccccc2C(F)(F)F)cc1)c1cc2cnccc2[nH]1, the remaining at 0.5 h, 1 µM [1] was 52%, the IC50 (A2780) was 0.025 µM and the IC50 [3] was 0.024 µM. For the same molecule, the remaining at 0.5 h, 1 µM [2] was 41%.
In the case of Cn1c(C(=O)NCc2ccc(S(=O)(=O)c3ccccc3)cc2)cc2cnccc21, the remaining at 0.5 h, 1 µM [1] is reported as 78%, the IC50 (A2780) is reported as > 10 µM and the remaining at 0.5 h, 1 µM [2] is reported as 34%.
Molecule O=C(NCc1ccc(S(=O)(=O)N2CCCCC2)cc1)c1cc2ccncc2o1 has a remaining at 0.5 h, 1 µM [1] of 56%, an IC50 (A2780) of 0.029 µM and a remaining at 0.5 h, 1 µM [2] of 0.14%.
O=C(NCc1ccc(S(=O)(=O)N2CCCCC2)cc1)c1cc2cnccc2[nH]1 showed a remaining at 0.5 h, 1 µM [1] of 44%, an IC50 (A2780) of 0.01 µM and a remaining at 0.5 h, 1 µM [2] of 1.9%.
For O=C(NCc1ccc(S(=O)(=O)c2cccc(F)c2)cc1)c1cc2cnccc2[nH]1, the remaining at 0.5 h, 1 µM [1] was 79%, the IC50 (A2780) was 0.011 µM and the IC50 [3] was 0.005 µM. The remaining at 0.5 h, 1 µM [2] was 44%.
For O=C(NCc1ccc(S(=O)(=O)c2ccccc2)cc1)c1ccc2nncn2c1, the remaining at 0.5 h, 1 µM [1] was 96%, the IC50 (A2780) was > 10 µM and the IC50 [3] was 0.37 µM. The remaining at 0.5 h, 1 µM [2] was 47%.
With O=C(NCc1ccc(S(=O)(=O)N2CCCCC2)cc1)c1ccc2nc[nH]c2c1 the remaining at 0.5 h, 1 µM [1] was 53%, the IC50 (A2780) was > 10 µM and the IC50 [3] was 0.31 µM. It also gave a remaining at 0.5 h, 1 µM [2] of 16%.
In the case of O=C(NCc1ccc(S(=O)(=O)c2ccccc2)cc1)c1ccc2cncn2c1, the remaining at 0.5 h, 1 µM [1] is reported as 65%, the IC50 (A2780) is reported as > 10 µM and the IC50 [3] is reported as 1.5 µM. It also gave a remaining at 0.5 h, 1 µM [2] of 1.7%.
Work on O=C(NCc1ccc(S(=O)(=O)N2CCCCC2)cc1)c1cc2cnccc2o1 yielded a remaining at 0.5 h, 1 µM [1] of 46%, an IC50 (A2780) of 1.5 µM and an IC50 [3] of 0.14 µM. The remaining at 0.5 h, 1 µM [2] was 4.6%.
In the case of O=C(NCc1ccc(S(=O)(=O)c2ccccc2)cc1)c1c[nH]c2ccncc12, the remaining at 0.5 h, 1 µM [1] is reported as > 99%, the IC50 (A2780) is reported as 2.1 µM and the remaining at 0.5 h, 1 µM [2] is reported as 45%.
Molecule O=C(NCc1ccc(S(=O)(=O)c2ccccc2)cc1)c1cc2cnccc2[nH]1 has a remaining at 0.5 h, 1 µM [1] of 75% and a remaining at 0.5 h, 1 µM [2] of 54%.
With O=C(NCc1ccc(S(=O)(=O)N2CCCCC2)cc1)c1ccn2ccnc2c1 the IC50 (A2780) was > 10 µM and the IC50 [3] was 1.8 µM.
In the case of O=C(NCc1ccc(S(=O)(=O)c2ccccc2)cc1)c1cnc2nccn2c1, the remaining at 0.5 h, 1 µM [1] is reported as 60%, the IC50 (A2780) is reported as 0.068 µM and the remaining at 0.5 h, 1 µM [2] is reported as 30%.
Work on O=C(NCc1ccc(S(=O)(=O)c2cc(F)cc(F)c2)cc1)c1cc2ccncc2o1 yielded a remaining at 0.5 h, 1 µM [1] of 77% and a remaining at 0.5 h, 1 µM [2] of 12%.
Work on O=C(NCc1ccc(S(=O)(=O)c2ccccc2)cc1)c1nc2cnccc2[nH]1 yielded a remaining at 0.5 h, 1 µM [1] of 73%, an IC50 (A2780) of 5.4 µM and a remaining at 0.5 h, 1 µM [2] of 7.3%.
